The source of these data is ChEMBL document CHEMBL5375944, “Discovery of Potent Agonists for the Predominant Variant of the Orphan MAS-Related G Protein-Coupled Receptor X4 (MRGPRX4)” (J Med Chem, 2023).

In brackets after ≈: the same amount, converted by molar mass.

Data set [1] deals with Mas-related G-protein coupled receptor member X1 (Homo sapiens, UniProt Q96LB2). Kind of data set: Agonist activity at MRGPRX1 (unknown origin) by beta-arrestin recruitment assay.
The target in data set [2] is Mas-related G-protein coupled receptor member X3 (Homo sapiens, UniProt Q96LB0). Nature of the data set: Agonist activity at MRGPRX3 (unknown origin) by beta-arrestin recruitment assay. It counts as functional. (Activated receptors often draw arrestin, which recruitment assays turn into a signal.)
Sequence of Mas-related G-protein coupled receptor member X3 (Q96LB0 whole entry): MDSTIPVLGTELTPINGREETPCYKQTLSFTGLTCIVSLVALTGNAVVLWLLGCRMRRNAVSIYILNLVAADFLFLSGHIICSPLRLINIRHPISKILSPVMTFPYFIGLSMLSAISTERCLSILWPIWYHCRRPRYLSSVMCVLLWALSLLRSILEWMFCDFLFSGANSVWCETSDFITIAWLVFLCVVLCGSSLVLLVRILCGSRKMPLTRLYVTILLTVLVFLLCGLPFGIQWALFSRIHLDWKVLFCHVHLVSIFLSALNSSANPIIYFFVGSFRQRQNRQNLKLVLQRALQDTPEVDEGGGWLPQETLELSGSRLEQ
Data set [3] has as its target G-protein coupled receptor 143 (Homo sapiens, UniProt P51810). Kind of data set: Agonist activity at GPR143 (unknown origin) by beta-arrestin recruitment assay.
The nature of data set [4]: Agonist activity at MRGPRX4 83S in human LN229 glioblastoma cells assessed as change in intracellular calcium level by calcium mobilization assay. It is filed as cell-based. For orientation: Calcium flux is commonly read through the fluorescence of an indicator in the cells.
The nature of data set [5]: Agonist activity at MRGPRX4 83S (unknown origin) expressed in CHO-K1 cells assessed as induction of beta-arrestin recruitment measured after 90 mins by luminescence assay. It is filed as cell-based. The conditions noted are these: Homo sapiens, CHO-K1, 1.5 h.
The nature of data set [6]: Agonist activity at MRGPRX4 83L (unknown origin) expressed in human 1321N1 glioblastoma cells assessed as change in intracellular calcium level by calcium mobilization assay. It is filed as cell-based.
A short description of data set [7]: Agonist activity at MRGPRX4 83L (unknown origin) expressed in CHO cells assessed as induction of beta-arrestin recruitment measured after 90 mins by luminescence assay. It counts as cell-based. The following applies: Homo sapiens, 1.5 h.
A short description of data set [8]: Agonist activity at MRGPRX4 83L (unknown origin) expressed in HEK293 cells co-expressing Galpha15 assessed as change in intracellular calcium level by FLIPR assay. It is filed as cell-based. The conditions noted are these: Homo sapiens.
Data set [9] is described as follows: Agonist activity at MRGPRX4 83L (unknown origin) expressed in HEK293 cells co-expressing Gq assessed as change in intracellular calcium level by FLIPR assay. It is filed as cell-based. The conditions noted are these: Homo sapiens.
Data set [10] is described as follows: Agonist activity at MRGPRX4 83S (unknown origin) expressed in HEK293 cells co-expressing Gq assessed as change in intracellular calcium level by FLIPR assay. It is filed as cell-based. The following applies: Homo sapiens.
Data set [11] can be described thus: Agonist activity at MRGPRX4 83S in human LN229 glioblastoma cells assessed as change in intracellular calcium level at 10 uM by calcium mobilization assay relative to control.
The next data set concerns LN-229. Kind of data set: Cytotoxicity against human LN-229 glioblastoma cells assessed as cell viability upto 30 uM measured after 3 days by MTT assay. It counts as toxicity, cell-based. The following applies: ln-229, 72 h, time 3 day.
The nature of data set [12]: Kinetic solubility of compound in PBS at pH 7.4 incubated for 3 days. It counts as physicochemical. The following applies: time 3 day, read-out: Kinetic_solubility.
Data set [13] can be described thus: Metabolic stability of the compound in human liver microsomes assessed as half life at 1 uM in presence of NADPH by LC-MS analysis. It counts as ADME, Microsome. For orientation: Liver microsomes are vesicles of endoplasmic reticulum, rich in cytochrome P450 enzymes.
Data set [14] in a line: Agonist activity at MRGPRX4 83L (unknown origin) expressed in human 1321N1 glioblastoma cells assessed as change in intracellular calcium level 10 uM by calcium mobilization assay relative to control.

Sequence of G-protein coupled receptor 143 (P51810 whole entry): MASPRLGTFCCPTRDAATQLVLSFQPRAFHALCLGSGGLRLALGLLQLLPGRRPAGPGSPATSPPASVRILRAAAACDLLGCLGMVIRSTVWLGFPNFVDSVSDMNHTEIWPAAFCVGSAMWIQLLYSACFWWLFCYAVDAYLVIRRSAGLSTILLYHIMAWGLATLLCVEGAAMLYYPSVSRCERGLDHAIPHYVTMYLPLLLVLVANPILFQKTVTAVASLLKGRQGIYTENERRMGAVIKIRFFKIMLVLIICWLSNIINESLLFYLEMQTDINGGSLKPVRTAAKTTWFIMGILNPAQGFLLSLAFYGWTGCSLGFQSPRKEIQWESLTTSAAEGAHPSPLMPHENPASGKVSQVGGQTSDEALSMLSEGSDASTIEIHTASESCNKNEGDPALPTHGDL
Sequence of Mas-related G-protein coupled receptor member X1 (Q96LB2 whole entry): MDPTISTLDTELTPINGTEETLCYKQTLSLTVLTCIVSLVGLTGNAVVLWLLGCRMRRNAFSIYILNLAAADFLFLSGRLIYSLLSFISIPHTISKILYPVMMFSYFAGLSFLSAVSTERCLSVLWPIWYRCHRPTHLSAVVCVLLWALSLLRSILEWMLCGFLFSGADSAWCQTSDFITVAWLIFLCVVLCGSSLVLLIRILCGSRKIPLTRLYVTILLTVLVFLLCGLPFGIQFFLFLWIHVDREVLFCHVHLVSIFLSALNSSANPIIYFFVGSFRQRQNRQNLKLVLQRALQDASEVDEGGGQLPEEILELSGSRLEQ

As a reminder, the EC50 is the concentration needed to bring the measured effect to its halfway point. Regarding `C#CCn1c(=O)c2c(nc(/C=C/c3cccc(OC)c3)n2C)n(CCCOP(=O)(O)O)c1=O`, the EC50 in [1], in data set [2] and in data set [3] was > 10 µM each time.
In the case of `C#CCn1c(=O)c2[nH]c(CCc3ccccc3)nc2n(CCCCP(=O)(O)O)c1=O`, the EC50 in data set [4] is 0.134 µM; in data set [5], 0.399 µM; in data set [6], 3.25 µM; in data set [7], > 10 µM.
For `C#CCn1c(=O)c2c(nc(CCc3cccc(OC)c3)n2C)n(CCCOP(=O)(O)O)c1=O` the same measures were 0.238 µM, 0.374 µM, 0.574 µM and > 10 µM.
For `C#CCn1c(=O)c2[nH]c(C(C)Cc3ccccc3)nc2n(CCCCP(=O)(O)O)c1=O` (configuration not stated) the same measures were 0.0345 µM, 0.0277 µM, 6.17 µM and 3.94 µM.
The matching figures for `C#CCn1c(=O)c2[nH]c(/C=C/c3cccc(OC)c3)nc2n(CCCCP(=O)(O)O)c1=O`: 0.0116 µM, 0.2 µM, > 10 µM and > 10 µM.
Regarding `C#CCn1c(=O)c2[nH]c([C@@H]3C[C@H]3c3ccccc3)nc2n(CCCCP(=O)(O)O)c1=O`, the EC50 in data set [4], in data set [5], in data set [6] and in data set [7] was > 10 µM throughout.
As for `C#CCn1c(=O)c2[nH]c(CCc3cccc(OC)c3)nc2n(CCCOC(C)=O)c1=O`, the concentration giving a half-maximal response (EC50) in data set [4], in data set [5], in data set [6] and in data set [7] was > 10 µM in each case.
`C[C@H](CCC(=O)O)[C@H]1CC[C@H]2[C@@H]3[C@@H](O)C[C@@H]4C[C@H](O)CC[C@]4(C)[C@H]3CC[C@]12C` [URSODIOL]: the EC50 in data set [8] turned out to be 4.93 µM; in data set [4], 47.5 µM; in [5], 3.27 µM; in data set [6], 41.1 µM; in data set [7] it was 33.8 µM.
As for `C#CCn1c(=O)c2[nH]c(C(C)Cc3ccccc3)nc2n(CCCCP(=O)(O)OCC)c1=O` (configuration not stated), the EC50 in data set [4], in data set [5], in [6] and in data set [7] was > 10 µM throughout.
Consider `C#CCn1c(=O)c2[nH]c(CCc3cccc(OC)c3)nc2n(CCCCC(=O)O)c1=O`, for which the EC50 in data set [4] is > 10 µM; in data set [5], 6.72 µM; in data set [6], > 10 µM; in data set [7], > 10 µM.
As to `C#CCn1c(=O)c2c(nc(C#Cc3cccc(OC)c3)n2C)n(CCCOP(=O)(O)O)c1=O`, the EC50 in data set [4], in data set [5], in data set [6] and in data set [7] was > 10 µM in each case.
Turning to `CC(C)[C@H]1CC[C@H](C(=O)N[C@H](Cc2ccccc2)C(=O)O)CC1` [NATEGLINIDE], the EC50 in data set [9] was 4.72 µM; in [10] it was > 10 µM; in data set [4] it was > 10 µM; in data set [5], 28.4 µM; in data set [6], 0.198 µM; in data set [7] it was 4.09 µM. The Activity in data set [11] is 0%.
For the molecule `C#CCn1c(=O)c2c(nc(/C=C/c3cccc(OC)c3)n2C)n(CCCO)c1=O`, the EC50 in data set [4] is > 10 µM.
`C[C@H](CCC(=O)O)[C@H]1CC[C@H]2[C@@H]3CC[C@@H]4C[C@H](O)CC[C@]4(C)[C@H]3C[C@H](O)[C@]12C` [DEOXYCHOLIC ACID]: the concentration for a half-maximal effect (EC50) in data set [8] was 2.6 µM; in data set [4], 169 µM; in [5], 1.68 µM; in [6], 11.2 µM; in data set [7], 24.6 µM.
A word on the half-life: it is the time needed for the level to fall by half in the phase considered. As for `C#CCn1c(=O)c2[nH]c(CCc3cccc(OC)c3)nc2n(CCCCP(=O)(O)O)c1=O`, the EC50 in data set [4] was 0.0112 µM; in data set [5], 0.032 µM; in data set [6] it was 0.435 µM; in data set [7], 5.71 µM. Also, in the data set with LN-229, the Activity result is “Non-Toxic”. Moreover, in data set [12], the solubility kinetic at 72 h turned out to be 218 µM (≈ 100 µg/mL). In addition, the half-life at 1 µM in data set [13] is > 4.5 h.
On to `COc1cccc(CCc2nc3c([nH]2)c(=O)n(CC2CCC2)c(=O)n3CCCCP(=O)(O)O)c1`, for which the EC50 in data set [4] is 0.0599 µM; in data set [5], 0.0689 µM; in data set [6], 1.6 µM; in data set [7], > 10 µM.
Take `C[C@H](CCC(=O)NCCS(=O)(=O)O)[C@H]1CC[C@H]2[C@@H]3CC[C@@H]4C[C@H](O)CC[C@]4(C)[C@H]3C[C@H](O)[C@]12C` [TAURODEOXYCHOLIC ACID]: the EC50 is 14.1 µM in [9]; > 10 µM in data set [4]; 54.5 µM in data set [5]; > 10 µM in [6]; 55.7 µM in [7]. The Activity in data set [11] was 6%; in data set [14] it was 1%.
Regarding `C[C@]12C[C@@H]3C[C@](C)(C1)C[C@@](C(=O)N[C@H](Cc1ccccc1)C(=O)O)(C3)C2`, the EC50 in data set [9] was 0.149 µM; in data set [10], > 10 µM; in [4], 13.3 µM; in data set [5], 3.98 µM; in data set [6] it was 0.00656 µM; in data set [7], 0.548 µM.
On to `C#CCn1c(=O)c2[nH]c(CCc3cccc(OC)c3)nc2n(CCCCS(=O)(=O)O)c1=O`, for which the concentration for a half-maximal effect (EC50) in data set [4], in data set [5], in data set [6] and in data set [7] was > 10 µM each time.
Turning to `C#CCn1c(=O)c2c(nc(-c3cccc(OC)c3)n2C)n(CCCOP(=O)(O)O)c1=O`, the EC50 in [4], in data set [5], in [6] and in data set [7] was > 10 µM throughout.
`C#CCn1c(=O)c2[nH]c(COc3ccccc3)nc2n(CCCCP(=O)(O)O)c1=O`: the EC50 in [4] is > 10 µM; in data set [5] it was 1.85 µM; in data set [6], > 10 µM; in data set [7], > 10 µM.
With `C#CCn1c(=O)c2[nH]c(CCc3cccc(OC)c3)nc2n(CCCO)c1=O`, the EC50 in data set [4], in data set [5], in data set [6] and in data set [7] was > 10 µM each time.
As for `O=C(O)[C@@H](Cc1ccccc1)NC(=O)C12CC3CC(CC(C3)C1)C2`, the EC50 is 0.581 µM in data set [9]; > 10 µM in data set [4]; 64.1 µM in [5]; 0.126 µM in [6]; 6.7 µM in data set [7]. For the same molecule, the Activity in data set [11] is 1%.
Consider `C#CCn1c(=O)c2c(nc(CCc3cccc(OC)c3)n2C)n(CCCCP(=O)(O)O)c1=O`, for which the EC50 in [4] was found to be 0.0192 µM; in data set [5], 0.03 µM; in data set [6], 0.333 µM; in [7] it was 6.28 µM. The Activity result in the data set with LN-229 is on record as “Non-Toxic”. The half-life at 1 µM in data set [13] was > 16 h.
Regarding `CCn1c(=O)c2[nH]c(CCc3cccc(OC)c3)nc2n(CCCCP(=O)(O)O)c1=O`, the half-maximal effective concentration (EC50) in data set [4] was 0.214 µM; in [5], 1.19 µM; in data set [6] it was 3.8 µM; in [7] it was > 10 µM.
Consider `C#CCn1c(=O)c2[nH]c(CCc3cccc(OC)c3)nc2n(CCCCP(=O)(OCC)OCC)c1=O`, for which the EC50 in data set [4], in data set [5], in data set [6] and in data set [7] was > 10 µM each time.
